Laboratory results from patent publication EP0367040A1, “Compounds for the treatment of urinary incontinence” (Kabi Pharmacia AB, priority 1988, dated 1990).
Like-named read-outs stand apart in the source and are kept apart here.

How the values were obtained:
rabbit urinary bladder [1] = experiment: Anticholinergic effect on carbachol-stimulated isolated urinary bladder strips; assay type: cell-based; details: Oryctolagus cuniculus, read-out: Carbachol stim.rabbit urinary bladder KD
Description: (§1) Carbachol was used as an agonist and was added to the organ bath cumulatively.

rabbit papillary muscles = experiment: Electrically stimulated isolated papillary muscle (heart), contraction amplitude; assay type: cell-based; details: Oryctolagus cuniculus, read-out: El.stim. papillary muscle, % inhibition of 1 µM
Description: The effects on heart were investigated by using isolated, rabbit papillary muscles, which were electrically stimulated at a submaximum frequency. The contraction amplitude was re­corded.

rabbit portal vein = experiment: Electrically induced submaximal contractions of isolated portal vein; assay type: cell-based; details: Oryctolagus cuniculus, read-out: El.stim. portal vein % inhibition by 1 µM
muscarinic receptors = experiment: Selectivity factor: isolated human urinary bladder versus human salivary gland (QNB radioligand); assay type: binding; details: quotient of inhibitory concentration on isolated human urinary bladder and human salivary gland; lower figure = higher selectivity for the bladder
Description: The human salivary glands were obtained from patients undergoing operation for treatment of cancer in these glands. As the radioligand by which the muscarinic receptors were label led, QNB was used. The method is described in detail by S. Batra et al. in Psychopharmacology, 1986, 90, 1-4.

rabbit urinary bladder [2] = experiment: Inhibition of electrically induced contractions of isolated urinary bladder strips; assay type: cell-based; details: Oryctolagus cuniculus; electrically stimulated isolated rabbit bladder strips; only about half of the contractile response is mediated by cholinergic nerves; read-out: El.stim. rabbit urinary bladder IC50
Description: as §1

albino mice = experiment: Mydriatic effect, pupil diameter in unanaesthetized mice after intravenous dosing; assay type: in vivo
Description: For studying the mydriatic effect of the compounds un­anaesthetized albino mice were used. The substance was given intravenously in different doses and the pupil diame­ter was measured by means of a microscope every tenth minute until the effect disappeared.

[3] = carbachol as agonist, added cumulatively, isolated rabbit bladder strips
[4] = 1 µM, isolated rabbit papillary muscle, electrically stimulated
[5] = 1 µM, isolated rabbit portal vein, electrically stimulated

Row | Selectivity factor for human urinary bladder in comparison with human salivary gland (muscarinic receptors) | IC50 (rabbit urinary bladder [2]) | Compound | Kb (rabbit urinary bladder [1]) | inhibition at 1 µM (rabbit papillary muscles) | inhibition at 1 µM (rabbit portal vein) | Kb (rabbit urinary bladder [1]; [3]) | inhibition at 1 µM (rabbit papillary muscles; [4]) | Mydriatic effect, % dilatation by 1 mg/kg i.v. (albino mice) | inhibition at 1 µM (rabbit portal vein; [5])
1 |  |  | CN1[C@@H]2CC[C@H]1C[C@@H](OC(=O)C(CO)c1ccccc1)C2 (stereo partly shown) [Atropine, reference compound] | 2 nM | 5% | 20% |  |  |  | 
2 | 6 | 8500 nM | CC(C)N(CCN(C)C(=O)C(c1ccccc1)c1ccccc1)C(C)C.Cl [Example No 3, N-methyl-N-(2-diisopropylaminoethyl)-2,2-diphenyl-acetamide hydrochloride] |  |  |  | 60 nM | 8% | 2% | 10%
3 | 5 | 35200 nM | CC(C)N(CCCN(C)C(=O)C(c1ccccc1)c1ccccc1)C(C)C [Example No 4, N-methyl-N-(3-diisopropylaminopropyl)-2,2 diphenylacetamide] |  |  |  | 550 nM | 9% | 0% | 4%
4 | 2 | 25700 nM | CN(CCCN(C)C(C)(C)C)C(=O)C(c1ccccc1)c1ccccc1.Cl [Example No 7, N-methyl-N-[3-(N-methyl-N-tert-butyl-amino)propyl]-2,2-diphenylacetamide hydrochloride] |  |  |  | 2900 nM | 0% | 0% | 4%
5 | 6 | 5300 nM | CC(C)N(CCNC(=O)C(c1ccccc1)c1ccccc1)C(C)C [Example No 10, N-(2-diisopropylaminoetyl)-2,2-diphenylacetamide] |  |  |  | 110 nM | 0% | 11% | 10%
6 |  |  | CCN(CC)CC#CCOC(=O)C(O)(c1ccccc1)C1CCCCC1 (stereo not shown) [Oxybutynin, 2-cyclohexyl-2-hydroxy-2-phenylacetic acid 4-(diethylamino)-2-butynyl ester, reference compound] | 6 nM | 3% | 6% |  |  | 95% | 
7 | 93 | 14500 nM | CC(CC(c1ccccc1)c1ccccc1)NC(C)(C)C (stereo not shown) [Terodiline, N-t-butyl-3,3-diphenyl-1-methylpropylamine, reference compound] |  |  |  | 220 nM | 14% | 1% | 4%
